The target in one data set is T1, CR4 I-domain (Homo sapiens, UniProt P20702, I333G).
T1 construct: made in house
T1 sequence (P20702 165-339 I333G limits assumed): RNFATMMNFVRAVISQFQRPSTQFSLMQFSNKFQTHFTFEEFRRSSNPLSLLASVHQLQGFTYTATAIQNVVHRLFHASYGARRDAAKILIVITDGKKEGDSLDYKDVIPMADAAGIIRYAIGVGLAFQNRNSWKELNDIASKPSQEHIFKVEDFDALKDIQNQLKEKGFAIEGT
Kind of data set: SPR, CR4 I domain binding to immobilized Aβ or iC3b. As to conditions: even at high concentrations of the CR4 I-domain (up to 10000 nM). On the procedure:
(§1) SPR assays were performed using CM-4 chips (cat no. 50-105-5323, Cytiva) and run in the BIAcore 3000 instrument (GE Health Care). As described, the chip surfaces were coupled with monomeric Aβ, aggregated Aβ, or iC3b using an amine-coupling chemistry method. A reference surface was prepared by coupling the surfaces with ethanolamine rather than protein. The CR3 and CR4 I domains were stabilized in the activated conformation by mutation of a C-terminal isoleucine residue to glycine and prepared as described earlier. […] The prepared solutions were injected over the surfaces; the contact time (tc) was 180 s, and the following dissociation phase time was 400 s. […] The distribution P (kd, KD) was calculated using the discretization of the equation:1 STotal=∫KDminKDmax∫koffminkoffmaxSkoff,KD,canalyte,tPkoff,KDdkoffdKD where S is the SPR signal. […] This was done through a global fit to the association and dissociation traces at the analyte concentrations (canalyte) mentioned above. The algorithm used Tikhonov regularization as described[44] at a confidence level of p = 0.95 to determine the most parsimonious distribution consistent with the data, showing only features essential to fit the data.

The next data set deals with CR4 (CD11c). Kind of data set: CR4 (CD11c) surface expression on iPSC-derived microglia. The format is cell-based, human. To be noted: Aβ 5 µg/mL, 60 min, 37 °C.
The next data set has as its system Aβ. Kind of data set: FDM-NTA of synthetic Aβ in PBS, QD-antibody conjugates. The format is binding, human. As to conditions: PBS pH 7.4; detected by aducanumab biosimilar; A-Aβ value on average. On the procedure: QD Ab (Ab) coupling was performed using SiteClick Qdot 655 Ab Labeling Kit (no. S10453; Molecular Probes) according to manufactures instructions. In brief, Ab, either “Aducanumab biosimilar” human IgG1,κ to aggregated Aβ (cat. no. PX-TA1335, lot. no. 040721-A01, ProteoGenix), or “Isotype control” human IgG1,κ (cat.no. HG1K, lot.no. MA14OC2803, SinoBiologicals) was concentrated in Ab preparation buffer to a concentration of 2 mg/mL or above. The buffer was simultaneously changed to 0.05 M Tris, pH 7.0. Next, carbohydrates on the Ab were modified by incubation with β-galactosidase for 4 h at 37 °C. […]
Samples for NTA were analyzed using a NanoSight NS300 system (Malvern Panalytical). The system was configured with a 405-nm laser, a high-sensitivity scientific complementary metal–oxide–semiconductor Orca Flash 2.8/Hamamatsu C11440 camera (Malvern Panalytical), a syringe pump, and for fluorescence measurements, a 650-nm long-pass filter was used. […] The videos were collected and analyzed using NanoSight software (version 3.3 and 3.4 with a concentration upgrade; Malvern). […] The camera level was set for both scattering and fluorescence mode to a maximum of 16. […] Only samples analyzed with the same detection threshold were compared. Pure protein was analyzed in PBS/EDTA with and without a 1:20,000 dilution of anti-Aβ (Aducanumab bios.) or isotype-matched Ab-QD reporters. […]

The next data set deals with CR3 I-domain. Kind of data set: SPR, CR3 I domain binding to immobilized Aβ or iC3b. Also noted: species or system human. To be noted: pH 7.4, 1 mM MgCl2; EVILFIT 2D distribution. On the procedure:
as §1

Another data set deals with CR3 (CD11b). Kind of data set: CR3 (CD11b) surface expression on iPSC-derived microglia. The class given is cell-based, human. As to conditions: Aβ 5 µg/mL, 60 min, 37 °C.
The test system of another data set is iPSC-derived microglia. Kind of data set: Lysosomal activity of iPSC-derived microglia (LysoTracker). As to conditions: Aβ 5 µg/mL, 60 min, 37 °C. The format is cell-based, human.

Description for CR3 (CD11b): (§2) For microglial differentiation, the human induced pluripotent stem cell (iPSC) line BIHi043A-XM001 was used[56]. Cells were cultured on Matrigel™ (cat. no. 356234, Corning)-coated culture plates in Essential 8™ Flex Medium (cat. no. A2858501, Gibco). The culture medium was changed daily, and cells were passaged in clusters every 3–4 days at a density of 80% using 0.5 mM EDTA/PBS. iPSCs were differentiated into microglia using the protocol described[72]. First, iPSCs were differentiated into hematopoietic progenitors (HP) using STEMdiff™ Hematopoietic Kit (cat. No. 05310, Stem Cell Technologies). On Day −1, iPSCs with a 70–80% density were passaged with ReLeSR™ (cat. no. 05872, Stem Cell Technologies) into E8 flex containing Matrigel-coated 6-well plates. Clusters of 100 cells were seeded at the desired density of 50–100 per well. At Day 0, in wells with 40–80 clusters, the E8 flex medium was replaced with 2 mL medium A. On Day 2, 1 mL of medium A was added to the well. On Day 3, the medium was removed and replaced with 2 mL Medium B. On Days 5, 7, and 9, 1 mL of medium B was added to the well. […] The adherent cells were gently washed off to increase the yield using a 5 mL serological pipette. […] On Days 13, 15, 17, 19, and 21, 1 mL of microglia differentiation medium was added to the well. […] On Days 38–42, the microglia were ready for functional studies. […]
Description for CR4 (CD11c): as §2

Broadly, the Kd is the free concentration of one partner at which half of the binding sites on the other are occupied at equilibrium, for simple one-to-one binding. Read a high Kd as lower affinity. One may read the koff as a measure of how fast the partners let go of each other. A lower koff goes with slow dissociation. For the substance “M-Aβ: Unaggregated and mainly monomeric synthetic human Aβ”, the “Interaction with CR4 I-domain” value with CR4 I-domain was “no interaction”. For the same substance, the “CD11c (CR4) surface expression” value in the data set with CR4 (CD11c) was “KIM127 Ab did not influence the CD11c expression”. The “Particles above 600 nm” value in the data set with Aβ is given as “less than 0.5 × 10^6 particles/mL”. At CR3 I-domain, this substance came in with a Kd of about 79 µM and a koff of 0.11 s⁻¹. In the data set with CR3 (CD11b), the “CD11b (CR3) surface expression” value is “not affected”. Moreover, the “Lysosomal activity of iMGs” value in the data set on iPSC-derived microglia is listed as “no such ability”.

These data come from PMC10858199, “Amyloid-β aggregates activate peripheral monocytes in mild cognitive impairment” (Nature Communications, 2024).
